The record followed here is ChEMBL document CHEMBL1138175, “Novel 1alpha,25-dihydroxyvitamin D3 analogues with the side chain at C12” (J Med Chem, 2006).

The target in experiment [1] is T1, Vitamin D3 receptor (Homo sapiens) (UniProt P11473).
T1 sequence (whole entry): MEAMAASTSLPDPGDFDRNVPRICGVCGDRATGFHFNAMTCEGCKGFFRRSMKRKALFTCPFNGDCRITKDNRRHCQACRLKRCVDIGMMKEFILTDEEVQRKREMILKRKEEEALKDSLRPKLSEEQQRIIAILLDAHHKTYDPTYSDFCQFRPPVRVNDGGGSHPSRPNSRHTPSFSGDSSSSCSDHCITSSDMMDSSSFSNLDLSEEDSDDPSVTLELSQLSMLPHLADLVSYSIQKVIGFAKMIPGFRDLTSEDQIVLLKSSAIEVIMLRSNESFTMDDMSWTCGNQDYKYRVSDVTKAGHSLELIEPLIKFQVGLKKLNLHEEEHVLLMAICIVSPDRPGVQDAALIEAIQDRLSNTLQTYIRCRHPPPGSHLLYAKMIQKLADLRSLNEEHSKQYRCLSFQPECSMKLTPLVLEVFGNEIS
The experiment can be described thus: Effect on Gal4 DBD-hVDRdelta LBD construct transactivation in COS7 cells at 10(-5) M. The format is functional, cell-based. Particulars: COS-7.

For experiment [2], the target named is T1, Vitamin D3 receptor (Homo sapiens). The experiment can be described thus: Effect on Gal4 DBD-hVDRdelta LBD construct transactivation in COS7 cells at 10(-7) M. The format is functional, cell-based. Particulars: COS-7.

Consider `C=C1/C(=C\C=C2/CC[C@@H](CCCCCCC(C)(C)O)[C@]3(C)CCC[C@@H]23)C[C@@H](O)C[C@@H]1O`, for which the Activity in experiment [1] stood at 100%; in experiment [2], 20%.

Turning to `C=C1/C(=C\C=C2/CC[C@@H](CCCCCC(C)(C)O)[C@]3(C)CCC[C@@H]23)C[C@@H](O)C[C@@H]1O`, in experiment [2], the Activity is 8%.

`C=C1/C(=C\C=C2/CC[C@@H](CCCCCCCC(C)(C)O)[C@]3(C)CCC[C@@H]23)C[C@@H](O)C[C@@H]1O` showed an Activity in experiment [2] of 6%.
